Reference: paper PMC6851183, “Computational design and characterization of nanobody-derived peptides that stabilize the active conformation of the β2-adrenergic receptor (β2-AR)” (Scientific Reports, 2019)
Ends that are not written are not given here.

Target: T1, β2-AR/RLuc8 with GFP^2/β-arr2 Arg393Glu, Arg395Glu (Homo sapiens, UniProt P07550)
T1 construct: expressed in transfected cells; host or cells: HEK-293
Assay: BRET^2-based β-arrestin 2 recruitment assay
Assay type: cell-based

T1 sequence (P07550 whole entry, change not shown): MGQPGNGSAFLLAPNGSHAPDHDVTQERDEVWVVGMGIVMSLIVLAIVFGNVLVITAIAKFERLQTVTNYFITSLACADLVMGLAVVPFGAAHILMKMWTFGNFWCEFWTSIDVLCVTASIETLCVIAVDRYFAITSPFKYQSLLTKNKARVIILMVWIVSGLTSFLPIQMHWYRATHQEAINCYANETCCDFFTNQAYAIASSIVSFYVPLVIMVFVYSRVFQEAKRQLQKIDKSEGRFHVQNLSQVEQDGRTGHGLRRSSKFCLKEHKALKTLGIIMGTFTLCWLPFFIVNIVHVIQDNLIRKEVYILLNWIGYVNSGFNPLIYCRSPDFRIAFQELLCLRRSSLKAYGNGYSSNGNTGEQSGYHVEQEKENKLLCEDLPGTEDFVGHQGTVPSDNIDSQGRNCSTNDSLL

Sequence: EDTAVYYCNANWDLLSD [P3]
- EC50: ~1 nM
- reduction in isoproterenol-induced BRET^2 signal (homogenized or permeabilized cells, 10 µM isoproterenol, P3 10^−12 to 10^−5 M, dose-dependent, maximum): up to 10%
